Tests used:
FOXM1 = FOXM1 protein expression, EFM-19; assay type: cell-based; details: Homo sapiens, 1 DT, read-out: IC50 reduction in FOXM1 positive cells
Procedure: (§1) Relative IC50/EC50 values were determined by curve fitting to a four parameter logistic equation: Y = bottom + ((top-bottom)/ (1+exp(HillSlope*(X – LnIC50)), where X is the natural log of dose/concentration, Y is response, decreasing as X increases, top and bottom are plateaus in the same units as Y, lnIC50 is the natural log of potency, in the same log units as X, and HillSlope measures the steepness of the curve. Data were plotted using GraphPad Prism.
(§2) After 72 hours, cells were stained with an anti-FOXM1 antibody and a secondary goat anti-rabbit IgG, Alexa Fluor® 488 conjugate; nuclei were stained with propidium iodide (PI). Alternatively, for assessment of Ki-67 levels, cells were treated for 2 DT and then stained with Ki-67 and a secondary goat anti-rabbit IgG, Alexa Fluor® 488 conjugate. Plates were read in an Acumen Explorer Ex3 (TTP Labtech) using Cellista software and the percentages of FOXM1 positive and Ki-67 positive cells were calculated over the background signal. Data were normalized in Excel using the mean value obtained from treatment with 2 µM BEZ235 as the minimum and the mean value obtained from treatment with 0.2% DMSO as the maximum.

MCF7 cells [1] = assay: SA-β-gal immunofluorescence (senescence), MCF7; assay type: cell-based, human
Procedure: (§3) After treatment, cells were fixed, washed with PBS, permeabilized and β-gal was detected using anti-β-galactosidase antibody; for multiplexed assays, TUNEL staining was carried out using Roche TUNEL reagents as indicated above. Nuclei were also stained with PI for total cell counting. Plates were read in an Acumen Explorer Ex3 (TTP Labtech) and raw data were analyzed with Cellista software. Outputs were expressed as percentages of each identified subpopulation 1) positive β-gal, and 2) total cell number. The percentages of β-gal positive cells, TUNEL positive cells, and cell numbers were plotted in Microsoft Excel.

MDA-MB-361 cells = assay: Annexin V/PI flow cytometry, MDA-MB-361; assay type: cell-based, human; details: 3 DT (untreated 45.7%)
Procedure: Annexin V/PI staining was performed following the vendor’s specifications in MCF7 and MDA-MB-361 cells. […] Raw data were analyzed with FlowJo X software. Events were gated for debris exclusion and singlets selection. A minimum of 10,000 cells were analyzed per sample.

MCF7 cells [2] = assay: BrdU incorporation ELISA in MCF7; assay type: cell-based; details: Homo sapiens, 3 DT
Procedure: as §1
After treatment, an ELISA for BrdU detection was performed (Roche, Cat. No. 11 669 915 001) following the vendor’s manual. Envision® (PerKinElmer) was used to measure the light emission of the samples and raw data were processed with Microsoft Excel and relative EC50 values were determined as described above. For normalization, the mean value obtained from cells treated with 2 µM […] doxorubicin (Sigma #D1515) was set as the minimum, and that obtained from treatment with the vehicle (0.2% DMSO) was set as the maximum.

MCF7 cells [3] = assay: Ki-67 protein expression, MCF7; assay type: cell-based; details: Homo sapiens, 2 DT, read-out: EC50 Ki-67 levels
Procedure: as §1, §2

MCF7 cells [4] = assay: Multiplexed cell number, β-gal and TUNEL in MCF7; assay type: cell-based, human; details: 0.125 µM or 0.5 µM, 1-5 DT
Procedure: The viable cell number was determined by PI staining, the % of β-gal positive cells was determined using an antibody to β-gal, and the % of Tunel positive cells was determined by the incorporation of labelled dUTP. The data are plotted as the mean (+/- SD) of 2 experiments for CDK4 and CDK6 inhibitor treatment, and the mean of 6 experiments (+/- SD) for untreated samples. The duration of treatment is plotted along the x-axis in doubling times (DT) for MCF7 cells.
as §3

CDK4/cyclin D1 complexes = target: CDK4/cyclin D1 complexes; design: method as in PMID 24919854; details: cell-free; read-out: Ki^ATP CDK4/cyclin D1; cited from earlier work

Structure (SMILES): CCN1CCN(Cc2ccc(Nc3ncc(F)c(-c4cc(F)c5nc(C)n(C(C)C)c5c4)n3)nc2)CC1 [abemaciclib, Abemaciclib]
- IC50 (FOXM1): 0.008 µM
- % β-gal Positive MCF7 Cells (MCF7 cells [1]; 0.5 µM, 4 days): 16.15 ± 1.48%
- % β-gal Positive MCF7 Cells (MCF7 cells [1]; 0.5 µM, 7 days): 16.25 ± 0.35%
- % β-gal Positive MCF7 Cells (MCF7 cells [1]; 0.5 µM, 10 days): 19.7 ± 1.83%
- % β-gal Positive MCF7 Cells (MCF7 cells [1]; 2 µM, 4 days): 42.45 ± 5.86%
- % β-gal Positive MCF7 Cells (MCF7 cells [1]; 2 µM, 7 days): 55.4 ± 18.8%
- % β-gal Positive MCF7 Cells (MCF7 cells [1]; 2 µM, 10 days): 30.85 ± 3.46%
- cells positive for annexin V (MDA-MB-361 cells; 0.5 µM): 84.6%
- cells positive for annexin V (MDA-MB-361 cells; 2 µM): 88.8%
- EC50 (MCF7 cells [2]): 0.178 µM
- EC50 (MCF7 cells [3]): 0.0421 µM
- TUNEL staining (MCF7 cells [4]): increase in TUNEL staining was observed by 2DT
- Ki (CDK4/cyclin D1 complexes): 0.0006 µM

From publication PMC5642494 (Oncotarget, 2017)
